Entries after “also recorded” stand apart in the source; their conditions may differ. Bridges are numbered along the chain shown (N, C = ends). Where no end group is shown, it is not given here.
What was measured:
[1] = target: T1, human endothelin ETA receptor (Homo sapiens, UniProt P25101); assay: Radioligand binding, human endothelin ETA receptor in transfected CHO cell membranes; details: tested at a concentration of up to 3 μM (p>0.05)
T1 construct: expressed in transfected cells; host or cells: CHO cells
T1 sequence (P25101 21-427): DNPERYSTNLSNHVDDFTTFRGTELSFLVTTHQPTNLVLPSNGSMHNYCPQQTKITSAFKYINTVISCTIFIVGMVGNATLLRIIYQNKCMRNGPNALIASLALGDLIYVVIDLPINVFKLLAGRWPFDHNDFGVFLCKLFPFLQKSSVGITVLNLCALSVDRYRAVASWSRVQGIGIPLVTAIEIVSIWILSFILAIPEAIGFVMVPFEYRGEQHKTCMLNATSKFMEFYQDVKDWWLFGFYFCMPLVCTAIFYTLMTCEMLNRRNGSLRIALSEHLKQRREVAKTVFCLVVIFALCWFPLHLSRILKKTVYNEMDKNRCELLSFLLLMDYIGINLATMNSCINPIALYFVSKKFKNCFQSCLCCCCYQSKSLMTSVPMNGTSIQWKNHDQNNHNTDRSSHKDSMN
Method: To evaluate the affinity of EDN3 97-140 for the agonist site of the human endothelin ETA receptor, radioligand binding with CHO cells transfected with the ETA receptor was used. […] Following incubation, the samples are filtered rapidly under vacuum through glass fiber filters (GF/B, Packard) presoaked with 0.1% BSA and rinsed several times with an ice-cold buffer containing 50 mM Tris-HCl and 150 mM NaCl using a 96-sample cell harvester (Unifilter, Packard). Filters were dried and then counted for radioactivity in a scintillation counter (Topcount, Packard) using a scintillation cocktail (Microscint 0, Packard). Results are expressed as a percent inhibition of the control radioligand specific binding.

[2] = system: ob/ob mice; assay: Glucose tolerance (IPGTT) in ob/ob mice; assay type: in vivo, mouse; details: for reduction in glucose: overnight fast, 0.6 mg/kg glucose challenge i.p., mean±SEM n=8
Method: (§1) DIO mice fed on a high fat diet for 14 weeks and ob/ob mice were purchased from Jackson Labs. Ob/Ob mice and DIO mice used in all studies were used at 7 and 18 weeks old, respectively. After an overnight fast, ob/ob and DIO mice were injected with vehicle (20 mM Na acetate/140 mM NaCl) or EDN3 97-140 (0.1, 1 or 10 mg/kg i.p.) followed by a […] (i.p.) or 2 g/kg (i.p.) D-glucose challenge in ob/ob and DIO mice respectively. Plasma glucose levels were determined from mouse tail vein bleeds at 0, 15, 30, 60, and 120 minutes after compound injection and measured using an automatic glucometer (Alpha-Trak). To determine the acute insulin release, plasma insulin levels were measured by using an ELISA kit with mouse insulin as a standard (Meso Scale Discovery). Results were expressed as percentages of vehicle concentrations and statistical significance determined by 2-way ANOVA repeated measures.

[3] = system: DIO mice; assay: Glucose tolerance (IPGTT) in DIO mice; assay type: in vivo, mouse; details: for decrease of glucose excursion: 2 g/kg glucose challenge i.p., mean±SEM n=8
Method: as §1

[4] = system: rat perfused colon; assay: GLP-1 secretion from rat perfused colon ex vivo
Method: Ex vivo rat colon vascular perfusion experiments were performed as previously described (Plaisancié, 1995). Male Sprague-Dawley rats (300 g) were purchased from Charles River and fed ad libitum with Purina Lab Chow #5001 (WF Fisher and Son Inc Sommerville, N.J.). Rats were decapitated and the abdomen was opened with a midline incision. […] The arterial vascular perfusion started immediately with an oxygenated Krebs-Henseleit buffer containing-solution at a rate of 2 mL/minute [solution: Krebs-Henseleit buffer (25.0 mM NaHCO3; 118 mM NaCl; 4.7 mM KCl; 1.2 mM MgSO4; 1.2 mM KH2PO4; 2.5 mM CaCl2) with 3% BSA, 5 mM glucose, MEM essential and nonessential amino acids (pH 7.4)]. The colonal lumen was perfused at the rate of 0.5 mL/minute. The remaining colon and small intestine were removed after the ligation of their respective supplying vessels. After the colon preparation was transferred to a 37° C. tissue bath, the portal effluent was collected as 5 minute fractions. The fraction aliquots were frozen at −20° C. for subsequent determinations of GLP-1. EDN3 97-140 was dissolved at 200 nM in vascular perfusion solution and perfused into the artery after a 30 minute baseline collection. […] The GLP-1 detection assay was carried out by using a commercial kit for active GLP-1 (7-36) amide according to the manufacturer's instructions (Millipore). GLP-1 release data was normalized to % baseline using the average of fractions collected prior to treatment as the baseline value and the peak data following each treatment. The average data across 3 independent experiments was reported comparing EDN3 97-140 versus control (baseline) and forskolin versus control (baseline). Statistical analysis was performed by one sided Satterwaite's test due to unequal variance and the Holm test was applied to account for multiple comparisons.

[5] = system: 3T3L1 adipocyte; assay: 3T3L1 adipocyte basal glucose uptake; assay type: cell-based; details: 10 μM (data not shown)
[6] = Insulin tolerance test; assay type: in vivo; details: 1 and 10 mg/kg i.p., acute administration (data not shown)
[7] = system: GLUTag cells; details: GLUTag cells

Substance: CTCFTYKDKECVYYCHLDIIWINTPEQTVPYGLSNYRESLRGKR-NH2 (disulfide 1-15, 3-11) [EDN3 97-140]
- binding to ETA receptor [1]: failed to bind
- reduction in glucose ([2]; 1 mg/kg i.p. single bolus): 35.1±13%
- reduction in glucose ([2]; 10 mg/kg i.p. single bolus): 31.3±6.9%
- glucose excursion curve in response to an IPGTT ([2]; acute peripheral administration 0.1, 1 or 10 mg/kg i.p.): decreased
- insulin secretion during IPGTT ([2]; i.p., trend towards an increase at 30 minutes at 10 mg/kg (p>0.05), 10 mg/kg): not statistically significant; also recorded: no statistically significant effect on insulin
- decrease of glucose excursion ([3]; DIO mice, 0.1 mg/kg i.p.): 19±7.2%
- decrease of glucose excursion ([3]; DIO mice, 1 mg/kg i.p.): 20.7±8.7%
- insulin during IPGTT ([3]; DIO mice, i.p. (p>0.05)): no statistically significant effect on insulin
- glucose excursion curve in response to an IPGTT ([3]; diet induced obese mice, acute peripheral administration 0.1, 1 or 10 mg/kg i.p.): decreased
- increase in GLP secretion from the rat perfused colon ([4]; 200 nM perfused via the superior mesenteric artery, vs baseline, p=0.0438): 56±18%
- increase in GLP-1 release ([4]; 200 nM, rat perfused colon): ~10 pM
- effect on 3T3L1 adipocyte basal glucose uptake [5]: no effect
- effect on insulin tolerance test [6]: no effect
- stimulated GLP-1 secretion ([7]; 1 μM, vehicle pre-treatment): 327±59 % of vehicle
- GLP-1 secretion from GLUTag cells, result in words ([7]; endothelin-3 at highest concentration 10 μM): most potent peptide tested
- EC50 ([7]; read-out: EC50, GLP-1 release GLUTag assay, 15 mM glucose): 369 nM

Reference: patent US20130345392A1, “EDN3-LIKE PEPTIDES AND USES THEREOF” (Pfizer Inc, priority 2011, published 2013)
